Assay results from PMC7822874, “Chemoprotective antimalarials identified through quantitative high-throughput screening of Plasmodium blood and liver stage parasites” (Scientific Reports, 2021).
Read-outs that look alike come from different tables or passages of the source.

Legend:
[1] = test system: P. berghei-ANKA-GFP-LucCON liver stage parasites in HepG2-A16-CD81EGFP cells; assay: P. berghei liver stage Pb-Luc assay, Method 1 (UCSD, 1536-well); type: cell-based, Plasmodium berghei; settings: Method 1; for AC50: Plasmodium berghei
[2] = test system: luciferase-expressing P. berghei liver stage parasites in HepG2 cells; assay: Inhibition of liver-stage development assay (ILSDA), Method 2 (WRAIR, 96-well); type: cell-based, Plasmodium berghei; settings: P. berghei liver stage, Method 2, dose response
[3] = test system: P. falciparum Dd2 Cytb F123L; assay: SYBR Green ABS proliferation assay, NCGC00473217 selected clone G08; type: cell-based, Plasmodium falciparum; design: log AC50, mean: unit: log10(M); settings: for AC50: Plasmodium falciparum; for log AC50, mean: cytochrome b mutant line
Method: (§1) As resistance selection studies implicated the parasite cytochrome bc1 complex in mediating reduced parasite susceptibility to both NCGC00473217 and NCGC00374598, we leveraged these drug-selected parasites to test for altered drug response to a panel of antimalarial compounds.
(§2) The P. falciparum parasite Dd2 line was cultured in vitro using standard conditions. […] Tissue culture flasks and assay plates were incubated at 37 °C under a gas mixture of 5% CO2, 5% O2 and 90% N2. […] Significant differences were assessed using two-sided Student’s t-tests. All HTS assays were stopped and read at 72 h. Percent response values represent relative growth as judged by SYBR Green-I fluorescence intensity values normalized to controls.
(§3) Fresh uninfected RBCs (0.5% hematocrit) were added on day 7 and media was changed every other day. […] Resistant parasites were maintained under drug media at a volume of 50 mL until a high parasitemia (> 5%) was achieved. Aliquots of the bulk resistant cultures were frozen in cryovials before cloning by limiting dilution in 96-well plates (seeded at 0.25 or 0.5 parasites/well)[70]. After 3 weeks of cloning, we screened for positive wells by flow cytometry with SYBR Green-stained cells. […] Parasites were harvested by saponin lysis at the trophozoite stage and genomic DNA was extracted using the QIAamp DNA Blood Midi Kit (Qiagen, Germantown, MD)[71].

[4] = test system: Plasmodium falciparum Dd2 asexual blood stage parasites; assay: microbe, parasite or virus in culture; design: species or system Plasmodium falciparum Dd2 in human erythrocytes; single determination (one 11-point concentration-response curve); settings: Plasmodium falciparum, DD2, Erythrocyte, 72 h; read-out: AC50
[5] = test system: P. falciparum Dd2 Cytb V259L; assay: SYBR Green ABS proliferation assay, NCGC00473217 selected clone F06; type: cell-based, Plasmodium falciparum; settings: Plasmodium falciparum
Method: as §1, §2, §3

[6] = test system: P. falciparum Dd2 Cytb A122D; assay: SYBR Green ABS proliferation assay, NCGC00473217 selected clone F12; type: cell-based, Plasmodium falciparum; settings: Plasmodium falciparum
Method: as §1, §2, §3

[7] = test system: P. falciparum Dd2 (clone B2) asexual blood stage parasites; assay: P. falciparum Dd2 asexual blood stage SYBR Green-I 72 h proliferation assay (qHTS); type: cell-based, Plasmodium falciparum; settings: Plasmodium falciparum, DD2, Dd2 parental; Hill fit, averaged from three independent replicates; top concentration 29 µM; read-out: Average AC50 (Log[M]), Dd2 (converted)
[8] = test system: P. falciparum Dd2 Cytb G131S; assay: SYBR Green ABS proliferation assay, NCGC00374598 selected clone C11; type: cell-based, Plasmodium falciparum; settings: Plasmodium falciparum
Method: as §1, §2, §3

[9] = DD2, cytochrome b mutant line, fifth value triple, c15, […], read-out: log AC50, mean (converted)
[10] = DD2, […], averaged from three independent replicates, top concentration 29 µM, read-out: Average AC50 (Log[M]), NCGC00473217 clone F06 (Cytb V259L) (converted)
[11] = DD2, […], averaged from three independent replicates, top concentration 29 µM, read-out: Average AC50 (Log[M]), NCGC00473217 clone G08 (Cytb F123L) (converted)
[12] = DD2, […], averaged from three independent replicates, top concentration 29 µM, read-out: Average AC50 (Log[M]), NCGC00473217 clone F12 (Cytb A122D) (converted)
[13] = DD2, […], averaged from three independent replicates, top concentration 29 µM, read-out: Average AC50 (Log[M]), NCGC00374598 clone C11 (Cytb G131S) (converted)
[14] = DD2, cytochrome b mutant line, third value triple, c9, […], read-out: log AC50, mean (converted)
[15] = DD2, cytochrome b mutant line, fourth value triple, c12, […], read-out: log AC50, mean (converted)
[16] = DD2, cytochrome b mutant line, second value triple, c6, […], read-out: log AC50, mean (converted)

Compound	AC50 [5, 10] [M]	AC50 [3, 11] [M]	AC50 [6, 12] [M]	AC50 [7] [M]	AC50 [8, 13] [M]	further results
O=c1[nH]c(N2CCOCC2)nc2c1CCN(Cc1cc(Cl)ccc1F)CC2 [NCGC00440651-01]	–	–	–	–	–	AC50 ([1]; Hill fit, 50% of maximum activity response, read-out: AC50): 2820 nM; AC50 ([1]; log10 of molar AC50 from Hill fit, read-out: Log AC50 (converted)): 2820 nM; Activity direction (Decrease / Inactive) [2]: Inactive; AC50 [3, 9]: 2.16e-06 M; log AC50, mean ([3]; fifth value triple, c15, […]): -5.575; AC50 [4]: 2370 nM
N[S+](=O)([O-])c1cc2c(cc1Cl)NC(C(Cl)Cl)N[S+]2(=O)[O-] (stereo not shown) [NCGC00018302-09]	1.42e-06	5.02e-06	6.32e-07	–	–	–
CCCN1C(CC(C)C)=N[S+](=O)([O-])c2cc(NC(=O)c3ccc(-c4ccccc4)o3)ccc21 [NCGC00521160-01]	6.32e-06	5.02e-06	3.17e-06	–	–	–
CCCN1C(CC(C)C)=N[S+](=O)([O-])c2cc(NC(=O)c3c(C)noc3C)ccc21 [NCGC00521866-01]	–	2.52e-06	7.52e-06	1.78e-05	1e-05	–
CCCN1C(CC(C)C)=N[S+](=O)([O-])c2cc(NC(=O)c3cncs3)ccc21 [NCGC00521052-01]	5.86e-06	–	1.72e-06	4.84e-06	6.58e-07	–
CCCN1C(CC(C)C)=N[S+](=O)([O-])c2cc(NC(=O)c3ccc(C(F)(F)F)cc3)ccc21 [NCGC00531759-01]	8.93e-07	–	8.93e-10	–	2.52e-06	–
NS(=O)(=O)c1cc2c(cc1Cl)NC(C1CC3C=CC1C3)NS2(=O)=O (stereo not shown) [NCGC00015288-06]	–	5.64e-07	7.1e-07	–	–	–
CCCN1C(CC(C)C)=N[S+](=O)([O-])c2cc(N[S+](=O)([O-])c3ccc(F)cc3)ccc21 [NCGC00521879-01]	–	6.32e-07	–	–	–	–
CCCN1C(CC(C)C)=N[S+](=O)([O-])c2cc(NC(=O)c3cnon3)ccc21 [NCGC00521034-01]	1e-05	1.59e-06	–	–	–	–
CN1C(CSCC(F)(F)F)Nc2cc(Cl)c(S(N)(=O)=O)cc2S1(=O)=O (stereo not shown) [NCGC00182076-03]	–	–	1e-08	2.82e-06	3.56e-06	–
CCCN1C(C)=N[S+](=O)([O-])c2cc(NC(=O)c3ccccc3)ccc21 [NCGC00522605-01]	–	3.56e-07	–	1e-05	2e-06	–
CCCN1C(CC(C)C)=N[S+](=O)([O-])c2cc(NC(=O)COC)ccc21 [NCGC00521098-01]	1.68e-05	–	1.12e-05	8.93e-06	3.56e-06	–
CCCN1C(CC(C)C)=N[S+](=O)([O-])c2cc(NC(=O)c3ccc(OC)cc3)ccc21 [NCGC00531533-02]	1e-06	1e-06	–	2.52e-06	1.47e-06	–
O=C(Nc1ccc2c(c1)[S+](=O)([O-])N=C1CCCN12)c1ccc(F)cc1 [NCGC00537667-01]	–	–	–	–	–	AC50 [5, 14]: 1.59e-05 M; AC50 [6, 15]: 1e-05 M; AC50 [8, 16]: 1.78e-05 M
CC(C)CC1=N[S+](=O)([O-])c2cc(NC(=O)c3cccs3)ccc2N1 [NCGC00532401-01]	–	–	–	–	–	AC50 [3, 9]: 2.52e-09 M; AC50 [6, 15]: 7.1e-06 M; AC50 [8, 16]: 2.82e-07 M
CCCN1C(CC(C)C)=N[S+](=O)([O-])c2cc([N+](=O)[O-])ccc21 [NCGC00510308-01]	1.59e-05	2.52e-09	–	–	–	–

Compound	AC50 [5, 10] [M]	AC50 [3, 11] [M]	AC50 [6, 12] [M]	AC50 [7] [M]	AC50 [8, 13] [M]	further results
CCCN1C(CC(C)C)=N[S+](=O)([O-])c2cc(NC(=O)c3ccc(OC(F)(F)F)cc3)ccc21 [NCGC00531538-01]	–	1.78e-05	1.59e-06	1.26e-06	–	–
CCCN1C(CC(C)C)=N[S+](=O)([O-])c2cc(N)ccc21 [NCGC00521151-01]	–	3.99e-06	–	2e-05	2e-06	–
CCCN1C(CC(C)C)=N[S+](=O)([O-])c2cc(NC(=O)c3cc4ccccc4o3)ccc21 [NCGC00521880-01]	4.48e-07	1.34e-06	3.99e-06	–	–	–
CCCN1C(CC(C)C)=N[S+](=O)([O-])c2cc(NC(=O)C3CCCO3)ccc21 (stereo not shown) [NCGC00521155-01]	5.97e-06	–	8.93e-06	1.26e-05	–	–
CCCN1C(CC(C)C)=N[S+](=O)([O-])c2cc(NC(=O)c3ccc(F)c(F)c3)ccc21 [NCGC00531540-01]	–	7.1e-07	3.99e-07	5.22e-06	7.96e-07	–
CC(C)CC1=N[S+](=O)([O-])c2cc(NC(=O)c3cccs3)ccc2N1C [NCGC00521057-01]	–	1.89e-07	1e-06	1.85e-06	2.24e-07	–
N[S+](=O)([O-])c1cc2c(cc1Cl)NCN[S+]2(=O)[O-] [NCGC00015508-23]	5.64e-07	–	1.78e-07	7.1e-07	8.93e-07	–
CCCN1C(CC(C)C)=N[S+](=O)([O-])c2cc(NC(=O)c3ccc(-c4ccccc4)cc3)ccc21 [NCGC00521159-01]	7.1e-06	–	8.93e-06	8.93e-06	7.1e-06	–
CCCN1C(CC(C)C)=N[S+](=O)([O-])c2cc(NC(=O)c3ccc(F)cc3)ccc21 [NCGC00521139-01]	5.64e-07	–	4.74e-07	5.22e-07	3.56e-07	–
CC(C)CC1=N[S+](=O)([O-])c2cc(NC(=O)c3ccc(F)cc3)ccc2N1 [NCGC00532402-01]	–	–	–	–	–	AC50 [5, 14]: 3.99e-07 M; AC50 [6, 15]: 1.12e-06 M
O=C(Nc1ccc2c(c1)[S+](=O)([O-])N=C1CCCN12)c1cccs1 [NCGC00537660-01]	–	–	–	–	–	AC50 [3, 9]: 2e-09 M
NS(=O)(=O)c1cc2c(cc1C(F)(F)F)NC(Cc1ccccc1)NS2(=O)=O (stereo not shown) [NCGC00018194-08]	1.26e-06	8.93e-06	–	–	1e-08	–
CCCN1C(CC(C)C)=N[S+](=O)([O-])c2cc(NC(=O)c3ccsc3)ccc21 [NCGC00521157-01]	1.34e-06	–	8.93e-07	2e-06	2.08e-06	–
CN1C(CC2CCCCC2)=N[S+](=O)([O-])c2cc(NC(=O)c3ccc(F)s3)ccc21 [NCGC00651709-01]	–	–	–	–	–	AC50 [3, 9]: 1.68e-05 M; AC50 [6, 15]: 5.31e-06 M; AC50 [8, 16]: 5.96e-06 M
O=c1[nH]c(N2CCOCC2)nc2c1CCN(Cc1ccc(Cl)cc1F)CC2 [NCGC00440653-01]	–	–	–	–	–	Max Resp (signal direction of the dose response) ([1]; Decrease = decreasing P. berghei viability with dose, Increase = increasing signal, Inactive = no dose response): Inactive; Activity direction (Decrease / Inactive) [2]: Inactive; AC50 [3, 9]: 2.16e-06 M; log AC50, mean ([3]; fifth value triple, c15, […]): -5.475; AC50 [4]: 3350 nM
